Test [1] relates to Ba/F3 cells expressing NTRK1-MPRIP. In words: MTS proliferation assay of Ba/F3 cells expressing NTRK1-MPRIP. Type of test: cell-based. Particulars: n=5. An excerpt:
(§1) The half maximal inhibitory concentration (IC50) values are listed (nM).

The test system of test [2] is CUTO-3 cells harboring the NTRK1-MPRIP gene fusion. Nature of the test: Immunoblot analysis of CUTO-3 cells. It is filed as cell-based. The text has this: Colorado University Thoracic Oncology (CUTO) 3 cells were derived from a pleural effusion from the index patient harboring the NTRK1-MPRIP gene fusion.
Background: A western blot detects proteins with antibodies after separation by electrophoresis.

Test [3] relates to KM12 cells harboring the TPM3-NTRK1 fusion. Nature of the test: MTS proliferation assay of KM12 cells. It is filed as cell-based. As to the method: KM12 cells harboring the TPM3-NTRK1 fusion were lysed following 5 h treatment with the indicated doses of inhibitors and subject to immunoblot analysis (n=3).
Proliferation of KM12 cells treated with the indicated drugs and doses were assayed for cell proliferation by MTS assay.

Test [4] has as its target T1, TRKA (Homo sapiens, UniProt P04629).
T1 construct: the inventors expressed full length TRKA in 293T cells; expressed in transfected cells; host or cells: 293T cells, transient transfection of pCDH-MCS1-EF1-puro carrying NTRK1-HA
Nature of the test: Immunoblot of 293T cell lysates expressing TRKA-HA: TRKA and downstream signaling. Particulars: 293T cells, 1 μM, 5 hours, presence or absence of NGF. Type of test: cell-based.

Test [5] has as its target T1, TRKA. In words: Immunoprecipitation of TRKA-HA from 293T cells and anti-phosphotyrosine immunoblot. It is filed as cell-based. The following applies: 293T cells, 1 μM, 5 hours, vs DMSO control.
Test [6] has as its system Ba/F3 cells expressing NTRK1 fusions. In words: MTS proliferation assay of Ba/F3 cells expressing NTRK1 fusions. It is filed as cell-based. Particulars: n=5, similar to Ba/F3 cells expressing ALK or ROS1 fusion constructs.
Description: as §1

The next test has as its system ROS1 gene fusions. Particulars: lung cancer patients harboring ROS1 gene fusions; cited from earlier work.

The values that follow come from patent US20150218652A1, “METHODS FOR DIAGNOSIS AND TREATMENT OF CANCER” (THE REGENTS OF THE UNVERSITY OF COLORADO, a body corporate, priority 2012, published 2015).

Where two headings read alike, the source gives them in different places.

T1 sequence (P04629 33-796): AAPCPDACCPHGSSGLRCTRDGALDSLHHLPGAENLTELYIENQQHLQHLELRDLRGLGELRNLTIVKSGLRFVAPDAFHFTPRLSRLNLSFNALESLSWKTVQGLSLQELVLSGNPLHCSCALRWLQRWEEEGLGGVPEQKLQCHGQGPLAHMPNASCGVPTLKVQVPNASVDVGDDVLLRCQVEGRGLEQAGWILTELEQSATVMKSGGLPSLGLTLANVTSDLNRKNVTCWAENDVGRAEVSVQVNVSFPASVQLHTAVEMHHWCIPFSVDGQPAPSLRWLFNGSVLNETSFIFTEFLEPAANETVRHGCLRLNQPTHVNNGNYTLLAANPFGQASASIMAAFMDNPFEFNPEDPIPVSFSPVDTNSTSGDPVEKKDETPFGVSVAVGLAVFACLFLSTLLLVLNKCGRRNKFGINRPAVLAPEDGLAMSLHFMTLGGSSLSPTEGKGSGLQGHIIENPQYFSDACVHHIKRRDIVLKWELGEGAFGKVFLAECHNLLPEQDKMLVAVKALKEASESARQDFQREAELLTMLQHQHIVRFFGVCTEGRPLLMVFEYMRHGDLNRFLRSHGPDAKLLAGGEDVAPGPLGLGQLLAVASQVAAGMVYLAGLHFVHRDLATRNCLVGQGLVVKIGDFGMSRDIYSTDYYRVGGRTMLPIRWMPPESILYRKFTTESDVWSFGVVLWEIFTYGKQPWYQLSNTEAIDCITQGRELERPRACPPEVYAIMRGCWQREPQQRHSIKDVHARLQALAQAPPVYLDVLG

For the molecule `O=C(Nc1cnn2ccc(N3CCC[C@@H]3c3cc(F)ccc3F)nc12)N1CC[C@H](O)C1` [ARRY-470], in test [1], the inhibition of proliferation result is “inhibition of proliferation”. For the same molecule, in test [2], the “inhibition of pERK” value is “inhibition” and the “inhibition of pTRKA” value is reported as “inhibition”. Moreover, the “inhibition of proliferation of KM12 cells” value (shortened to “inhibition … of KM12 cells”) in test [3] was “inhibited”.
Turning to `C[C@]12O[C@H](C[C@]1(O)CO)n1c3ccccc3c3c4c(c5c6ccccc6n2c5c31)CNC4=O` [CEP-701], in test [1], the inhibition of proliferation entry is on record as “inhibition of proliferation”. Besides, on TRKA [4], the “phosphorylation of AKT” value is on record as “inhibited phosphorylation”; the “phosphorylation of ERK” value was “inhibited phosphorylation”; the “phosphorylation of TRKA (phosphotyrosine 490, 674, 675)” value is “inhibited phosphorylation”. Further, the “Phosphorylation of TRKA (anti-phosphotyrosine 4G10 after HA immunoprecipitation)” value at TRKA [5] is “significantly reduced”. The “inhibition … of KM12 cells” value in test [3] (MTS assay) is listed as “inhibited”.
`C[C@@H](Oc1cc(-c2cnn(C3CCNCC3)c2)cnc1N)c1c(Cl)ccc(F)c1Cl` [crizotinib]: the “inhibition of cell proliferation of Ba/F3 expressing NTRK1 fusions” value in test [6] is “inhibition”. The patient response entry in the test on ROS1 gene fusions is listed as “respond”. Further, on TRKA [4], the “phosphorylation of ERK” value was “decreased phosphorylation” and the “phosphorylation of TRKA (phosphotyrosine 490, 674, 675)” value was “decreased phosphorylation”. In addition, the “inhibition … of KM12 cells” value in test [3] (MTS assay) is given as “inhibited”.
